Reference: US9359418B2, “Inhibitors of the T cell-specific alternative p38 activation pathway and methods of use” (The United States of America, as represented by the …, priority 2012, dated 2016)

Key:
[1] = system: tumor-infiltrating T cells; assay: KPC mice, intracellular TNF-α of tumor infiltrating cells after intraperitoneal injection; format: in vivo; settings: 80 μg intraperitoneal every other day for 1 month
Method: FIG. 12 is a panel of flow cytometry plots showing that intraperitoneal injection of (11R)-71-85 inhibits TNF-α secretion from tumor-infiltrating T cells from KPC mice. KPC mice are genetically engineered to develop pancreatic cancer because of oncogene expression and p53 haploinsufficiency. KPC mice received intraperitoneal injections of 80 μg of either (11R)-71-85 or (11R)-Scrambled every other day for 1 month. Twenty-four hours after the last injection, tumor infiltrating cells were harvested and restimulated with PMA and ionomycin, or left unstimulated, in the presence of Golgi inhibitor for 4 hours. Expression of intracellular TNF-α was determined by flow cytometry.
A second murine model of pancreatic cancer was used to evaluate the effect of (11R)-71-85 on cytokine secretion by tumor cells. KPC mice are genetically engineered to develop pancreatic cancer because of oncogene expression and p53 haploinsufficiency. KPC mice were administered 80 μg of either (11R)-71-85 or (11R)-Scrambled by intraperitoneal injection every other day for 1 month. Twenty-four hours after the last injection, tumor infiltrating cells were harvested and restimulated with PMA and ionomycin, or left unstimulated, in the presence of Golgi inhibitor for 4 hours. Expression of intracellular TNF-α was determined by flow cytometry (FIG. 12).

[2] = system: KPC mice; assay: KPC mice, PanIN progression and cancer formation after intravenous treatment; format: in vivo
Method: FIGS. 13A-13D are graphs showing that (11R)-71-85 inhibits PanIN and cancer formation in KPC mice. (FIG. 13A) KPC mice were sub-lethally irradiated at 6 weeks of age and packed with 10×10^6 hematopoietic bone marrow cells and the survival was monitored (n=5 per group; *p<0.05, Log-rank test). (FIG. 13B) Quantification of normal ducts and PanIN of KPC mice treated as in (A) (n=6 per group). (FIG. 13C) CD4^+ T cells infiltrated in the pancreas were analyzed for TNFα and IFNγ expression by flow cytometry after treatment with (11R) 71-85 or (11R) Scr. Bar graphs show the average percentage of indicated cytokine secreting cells. (n=8 per group; *p<0.05, NS=not significant, unpaired two-tailed Student's t-test). (FIG. 13D) KPC mice were treated as in (A) and the expression of different tumor promoting factors was analyzed in isolated pancreatic epithelial cells by quantitative real-time PCR (n=6 per group).
KPC mice provide a genetic model of murine pancreatic tumors that closely mimics the human disease. KPC (KrasG12D/^+; LSLTrp53R172H/^+; Pdx-1-Cre) mice express K-ras in pancreatic epithelium, and when made heterozygous for p53, develop spontaneous tumors starting at approximately 8-10 weeks of age (Hingorani et al., Cancer Cell 7(5):469-483, 2005). This involves the formation of pancreatic intraepithelial neoplasia precursor lesions (PanIN) and progression to fully-developed carcinoma with surrounding stromal and inflammatory reactions (Hingorani et al., Cancer Cell 7(5):469-483, 2005).
Given these findings, further experiments were conducted to determine if inhibition of the alternative pathway in KPC mice would alter disease progression. KPC mice were treated with intravenous (11R)-71-85 or (11R)-Scrambled starting at 9 weeks of age, and the pancreas was histologically evaluated 3.5 weeks later. Thirty-three percent (2 of 6) of mice treated with (11R)-Scrambled developed invasive carcinoma in the pancreas. […] In line with the reduced TNFα secretion, Irf4 mRNA expression was decreased in CD4^+ TILs after (11R)-71-85 treatment. […] The fact that early stage PanIN formation was present, but later pre-invasive stages were reduced, in (11R)-71-85-treated mice supports a role for T cell-derived TNFα in the progression of PanIN towards invasive carcinoma.

[3] = system: PANC02 tumors; assay: PANC02 pancreatic tumor model, tumor growth after intra-tumor injection; format: in vivo, mice; settings: relative to control animals
Method: FIGS. 9A-9C show injection of (11R)-71-85 stops the growth of established PANC02 tumors. WT C57BL/6 mice were injected with 7.5×10^5 PANC02 cells. After 16 days, mice received intra-tumor injections of (11R)-71-85 at the indicated amount or DMSO every other day. (FIG. 9A) Tumor volume from the start of injection (day 16) to day 42 in control mice and mice injected with 40 μg or 80 μg of (11R)-71-85. Sacrifice (sac.) of mice before day 42 is indicated. (FIG. 9B) weight and (FIG. 9C) appearance of the control (left) and treated (right) tumors on day 38.
The p38 MAPK has been implicated in the growth of some tumors that cause local inflammatory responses, such as pancreatic cancer. Therefore, (11R)-71-85 was tested in a pancreatic tumor model. WT C57BL/6 mice were injected with 7.5×10^5 PANC02 cells. After 16 days, mice received intra-tumor injections of 40 μg or 80 μg (11R)-71-85 or DMSO every other day. Tumor volume from the start of injection (day 16) to day 42 in control mice and mice injected with (11R)-71-85 or DMSO was determined (FIG. 9A). Weight (FIG. 9B) and appearance (FIG. 9C) of the control and treated tumors were assessed on day 38.

[4] = system: CD4+ T cells; assay: Cellular uptake of FITC conjugated peptides by purified CD4+ T cells; format: cell-based; settings: FITC conjugated peptide, 2 hours at 37° C., flow cytometry
Method: FIG. 1 is a graph showing cellular uptake of (11R)-71-85 and (11R)-Ctrl. Purified CD4^+ T cells were treated with either FITC conjugated (11R)-71-85 or (11R)-Ctrl, or left untreated for 2 hours at 37° C. After incubation, cells were washed and analyzed by flow cytometry for FITC positivity.
To generate a cell-permeable form of the Gadd45α 71-85 peptide, 11 arginine residues were added to the N-terminus to produce a fusion protein referred to herein as (11R)-71-85. Cell-permeability of (11R)-71-85 was tested using purified CD4^+ T cells. (11R)-71-85 and a control peptide fused to 11 arginine residues (referred to as (11R)-Ctrl) were FITC conjugated. Purified CD4^+ T cells were treated with either FITC conjugated (11R)-71-85 or (11R)-Ctrl, or left untreated for 2 hours at 37° C. After incubation, cells were washed and analyzed by flow cytometry for FITC positivity.

[5] = intravenous, compared to control

(11R)-71-85: fusion protein: 11 arginine residues added to the N-terminus of the Gadd45α 71-85 peptide (LQIHFTLIQAFCCEN; N-terminal 11 arginine; UniProt P24522 71-85, looked up, fragment)
TNF-α secretion by tumor-infiltrating T cells [1]: inhibits | Irf4 mRNA expression in CD4+ TILs ([2]; intravenous): decreased | progression towards high grade PanIN formation (PanIN3, carcinoma in situ) ([2]; intravenous from 9 weeks of age, 3.5 weeks): slowed | mice that developed invasive carcinoma in the pancreas ([2]; intravenous from 9 weeks of age, histology 3.5 weeks later): no mice | intrapancreatic fibro-inflammatory reaction (H&E) ([2]; intravenous, compared to (11R)-Scrambled): reduced | CD4+ tumor infiltrating lymphocytes expressing TNFα [2, 5]: reduced numbers | expression of IFNγ in CD4+ tumor infiltrating lymphocytes [2, 5]: slightly reduced | expression of Cc12 in pancreatic epithelial cells ([2]; quantitative real-time PCR): reduced | expression of Cc15 in pancreatic epithelial cells ([2]; quantitative real-time PCR): reduced | expression of Tgfβ in pancreatic epithelial cells ([2]; quantitative real-time PCR): reduced | expression of Vegf in pancreatic epithelial cells ([2]; quantitative real-time PCR): reduced | tumor volume ([3]; 40 μg or 80 μg intra-tumor every other day from day 16 to day 42): significantly decreased | tumor weight ([3]; intra-tumor injection every other day, day 38): significantly decreased | cellular uptake (FITC positivity) [4]: taken up by the T cells
